Data: article PMC5053523, “In Vitro Antibacterial Activity of Rhodanine Derivatives against Pathogenic Clinical Isolates” (PLoS ONE, 2016)
Values after ≈ are worked out from the molar mass of the structure shown. Read-outs that look alike come from different tables or passages of the source.

Assays:
[1] = tested on: vancomycin resistant enterococci (VRE); assay: Broth microdilution MIC50/MIC90, VRE panel; type: cell-based; settings: Enterococcus, 10 VRE strains
B. licheniformis = assay: Broth microdilution MIC/MBC, B. licheniformis; type: cell-based; settings: Bacillus licheniformis; for MBC: read-out: MBC; for MIC: read-out: MIC
MRSA USA300 = assay: MIC against MRSA USA300 with and without 4% human serum albumin; type: cell-based, Staphylococcus aureus; settings: Staphylococcus aureus, read-out: MIC against MRSA USA300
Summary of the method: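 MIC measured in tryptic soy broth spiked with 4% HSA and without it, using CLSI broth microdilution on MRSA USA300. Value reported is the lowest concentration preventing bacterial growth.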

Salmonella Typhimurium = assay: MIC with/without sub-MIC colistin, Salmonella Typhimurium; type: cell-based
Method: (§1) The MIC of the rhodanines and control antibiotics, in the presence of a sub-inhibitory concentration of colistin or polymixin B nonapeptide (PMBN), against Gram-negative bacteria was evaluated as described before. The antibacterial activity of the rhodanines was further investigated against E. coli SM1411Δ acrAB, a strain that is deficient in the multidrug-resistant AcrAB efflux pump, as described before.

B. cereus = assay: Broth microdilution MIC/MBC, B. cereus; type: cell-based; settings: Bacillus cereus; for MBC: read-out: MBC; for MIC: read-out: MIC
Text: The broth microdilution technique was used, followed by subculturing on agar plates that were rhodanine—free.

Klebsiella pneumoniae [2] = assay: MIC with/without sub-MIC colistin, Klebsiella pneumoniae; type: cell-based
Method: as §1

Bacillus anthracis = assay: microbe, parasite or virus in culture; type: cell-based
P. aeruginosa = assay: Broth microdilution MIC, P. aeruginosa; type: cell-based; settings: Pseudomonas aeruginosa
[3] = tested on: vancomycin resistant enterococci (VRE) E. faecium; assay: Broth microdilution MIC/MBC, VRE E. faecium; type: cell-based; settings: for MIC: read-out: MIC
Klebsiella pneumoniae [4] = assay: MIC with/without PMBN, Klebsiella pneumoniae; type: cell-based
Method: as §1

Acinetobacter baumannii [5] = assay: Broth microdilution MIC, Acinetobacter baumannii; type: cell-based
[6] = tested on: vancomycin resistant enterococci (VRE) E. faecalis; assay: Broth microdilution MIC/MBC, VRE E. faecalis; type: cell-based; settings: for MIC: read-out: MIC
Acinetobacter baumannii [7] = assay: MIC with/without PMBN, Acinetobacter baumannii; type: cell-based
Method: as §1

[8] = NCIB9375, B. licheniformis Gibson 46 (NCIB 9375) NR-2494
[9] = NRS712, B. licheniformis NRS 712 NR-2499
[10] = NRS201, B. cereus NRS 201 NR-2488
[11] = E. faecium HM 968 Strain ERV102
[12] = E. faecium NR31914 Strain E0120
[13] = E. faecium Patient #1–1 NR-31903
[14] = E. faecalis NR31972 Strain SF 28073

SMILES: O=C(O)[C@H](Cc1ccccc1)N1C(=O)/C(=C/c2cccc(Oc3ccc(Cl)c(Cl)c3)c2)SC1=S [Rh 1]
- MIC90 ([1]; VRE, read-out: MIC 90): 8 µM (≈ 4.24 µg/mL)
- MIC50 ([1]; read-out: MIC 50): 8 µM (≈ 4.24 µg/mL)
- MBC (B. licheniformis; [8]): 2 µM (≈ 1.06 µg/mL)
- MIC (B. licheniformis; [8]): 2 µM (≈ 1.06 µg/mL)
- MBC (B. licheniformis; [9]): 4 µM (≈ 2.12 µg/mL)
- MIC (B. licheniformis; [9]): 4 µM (≈ 2.12 µg/mL)
- MIC (MRSA USA300; 24 h, Media TSB + 4% HSA): > 64 µM
- MIC (MRSA USA300; Media TSB): 8 µM (≈ 4.24 µg/mL)
- MIC (Salmonella Typhimurium; Salmonella Typhimurium ATCC 700720, colistin (+) […], read-out: MIC): >64 µM
- MIC (Salmonella Typhimurium; Salmonella enterica, ATCC 700720 / TYPHIMURIUM): > 128 µM
- MBC (B. cereus; B. cereus BAG1O-2 NR-28582): 4 µM (≈ 2.12 µg/mL)
- MIC (B. cereus; B. cereus BAG1O-2 NR-28582): 4 µM (≈ 2.12 µg/mL)
- MBC (B. cereus; B. cereus BAG1X1-1 NR-28575): 2 µM (≈ 1.06 µg/mL)
- MIC (B. cereus; B. cereus BAG1X1-1 NR-28575): 2 µM (≈ 1.06 µg/mL)
- MBC (B. cereus; B. cereus BAG1X2-1 NR-28578): 4 µM (≈ 2.12 µg/mL)
- MIC (B. cereus; B. cereus BAG1X2-1 NR-28578): 4 µM (≈ 2.12 µg/mL)
- MBC (B. cereus; B. cereus G9241 NR-9564): 4 µM (≈ 2.12 µg/mL)
- MIC (B. cereus; B. cereus G9241 NR-9564): 4 µM (≈ 2.12 µg/mL)
- MBC (B. cereus; B. cereus VD014 NR-22141): 4 µM (≈ 2.12 µg/mL)
- MIC (B. cereus; B. cereus VD014 NR-22141): 4 µM (≈ 2.12 µg/mL)
- MBC (B. cereus; B. cereus VD115 NR-22148): 4 µM (≈ 2.12 µg/mL)
- MIC (B. cereus; B. cereus VD115 NR-22148): 4 µM (≈ 2.12 µg/mL)
- MBC (B. cereus; B. cereus VD148 NR-22150): 4 µM (≈ 2.12 µg/mL)
- MIC (B. cereus; B. cereus VD148 NR-22150): 4 µM (≈ 2.12 µg/mL)
- MBC (B. cereus; [10]): 4 µM (≈ 2.12 µg/mL)
- MIC (B. cereus; [10]): 4 µM (≈ 2.12 µg/mL)
- MIC (Klebsiella pneumoniae [2]; Klebsiella pneumoniae ATCC BAA 2146, colistin (+) […]): >64 µM
- MIC (Klebsiella pneumoniae [2]; Klebsiella pneumoniae, BAA2146): > 128 µM
- MBC (Bacillus anthracis; Bacillus anthracis AMES35): 2 µM (≈ 1.06 µg/mL)
- MIC (Bacillus anthracis; Bacillus anthracis AMES35): 2 µM (≈ 1.06 µg/mL)
- MBC (Bacillus anthracis; Bacillus anthracis UM23): 2 µM (≈ 1.06 µg/mL)
- MIC (Bacillus anthracis; Bacillus anthracis UM23): 2 µM (≈ 1.06 µg/mL)
- MBC (Bacillus anthracis; Bacillus anthracis Weybridge): 2 µM (≈ 1.06 µg/mL)
- MIC (Bacillus anthracis; Bacillus anthracis Weybridge): 2 µM (≈ 1.06 µg/mL)
- MIC (P. aeruginosa; ATCC9721): > 128 µM
- MIC (P. aeruginosa; ATCC15442): > 128 µM
- MBC ([3]; E. faecium E417 HM-965): > 64 µM
- MIC ([3]; E. faecium E417 HM-965): 8 µM (≈ 4.24 µg/mL)
- MBC ([3]; E. faecium E1071 NR-28978): 64 µM (≈ 33.9 µg/mL)
- MIC ([3]; E. faecium E1071 NR-28978): 8 µM (≈ 4.24 µg/mL)
- MBC [3, 11]: 32 µM (≈ 17 µg/mL)
- MIC [3, 11]: 8 µM (≈ 4.24 µg/mL)
- MBC [3, 12]: 64 µM (≈ 33.9 µg/mL)
- MIC [3, 12]: 8 µM (≈ 4.24 µg/mL)
- MBC [3, 13]: 16 µM (≈ 8.49 µg/mL)
- MIC [3, 13]: 4 µM (≈ 2.12 µg/mL)
- MIC (Klebsiella pneumoniae [4]; Klebsiella pneumoniae ATCC BAA 1706, PMBN (+) 4 μg/mL): >64 µM
- MIC (Klebsiella pneumoniae [4]; Klebsiella pneumoniae ATCC BAA 2146, PMBN (+) 4 μg/mL): >64 µM
- MIC (Klebsiella pneumoniae [4]; Klebsiella pneumoniae, BAA1706): > 128 µM
- MIC (Klebsiella pneumoniae [4]; Klebsiella pneumoniae, BAA2146): > 128 µM
- MIC (Acinetobacter baumannii [5]; ATCC13345): > 128 µM
- MIC (Acinetobacter baumannii [5]; ATCC17786): > 128 µM
- MBC ([6]; E. faecalis ERV103 HM-934): 8 µM (≈ 4.24 µg/mL)
- MIC ([6]; E. faecalis ERV103 HM-934): 8 µM (≈ 4.24 µg/mL)
- MBC [6, 14]: 32 µM (≈ 17 µg/mL)
- MIC [6, 14]: 8 µM (≈ 4.24 µg/mL)
- MBC ([6]; E. faecalis R712 HM-335): 8 µM (≈ 4.24 µg/mL)
- MIC ([6]; E. faecalis R712 HM-335): 4 µM (≈ 2.12 µg/mL)
- MBC ([6]; E. faecalis S613 HM-334): 8 µM (≈ 4.24 µg/mL)
- MIC ([6]; E. faecalis S613 HM-334): 8 µM (≈ 4.24 µg/mL)
- MBC ([6]; E. faecalis TX0104 HM-201): 8 µM (≈ 4.24 µg/mL)
- MIC ([6]; E. faecalis TX0104 HM-201): 8 µM (≈ 4.24 µg/mL)
- MIC (Acinetobacter baumannii [7]; Acinetobacter baumannii ATCC BAA747, PMBN (+) 4 μg/mL, read-out: MIC): >64 µM
- MIC (Acinetobacter baumannii [7]; Acinetobacter baumannii ATCC BAA19606, PMBN (+) 4 μg/mL, read-out: MIC): >64 µM
- MIC (Acinetobacter baumannii [7]; Acinetobacter baumannii, ATCCBAA747): > 128 µM
- MIC (Acinetobacter baumannii [7]; Acinetobacter baumannii, ATCCBAA19606): > 128 µM
